From patent US12043630B2, “Polymorphic form of TG02 for treating cancer” (Cothera Bioscience, Inc., priority 2017, dated 2024)
Where a name gives a salt, the structure may show the parent alone.

Experiment: Polymorphic form conversion over time
Assay type: physicochemical
Experimental: Preparation: A solution containing TG02·HCl (77.1 g), EtOH (2340 mL) and H2O (185 mL) was heated at reflux for 0.5 h. The mixture was cooled to […] and stirred for 2 h. The mixture was filtered, and the filter cake was washed with EtOH and dried to give TG02 Form VIII (HCl).

Compound: CN1C/C=C/CCOc2cccc(c2)-c2ccnc(n2)Nc2cccc(c2)C1 [TG02 Form VIII (HCl), (16E)-14-methyl-20-oxa-5,7,14,26-tetraazatetracyclo[19.3.1.1(2,6).1(8,12)]heptacosa-1(25),2(26),3,5,8(27),9,11,16,21,23-decaene]
- Form conversion over time: gradually converted to TG02 Form VI (HCl) over time
